Data as given in patent US20260297085A1, “1 H-PYRROLO[2,3-B]PYRIDIN-4-YL]-2-OXOPYRROLIDINE-3-CARBONITRILE DERIVATIVES AS TYROSINE KINASE 2 (TYK2) INHIBITORS FOR THE TREATMENT OF INFLAMMATORY DISEASES” (BIOGEN MA INC., priority 2023, published 2026).
Counter-ions that a name gives are not always drawn.

Tests used:
[1] = molecular target: T1, human JAK1 kinase domain (JH1) (Homo sapiens, UniProt P23458); test: JH1 biochemical assay for JAK1 (ADP-Glo kinase assay, recombinant JH1 catalytic domain, JAK3-342 peptide, 35 μM ATP)
T1 construct: recombinantly generated catalytic kinase (also known as JH1) domain of human JAK1, JAK2, JAK3 and TYK2
Procedure, shortened: (§1)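 Kinase 4 nM JAK1 / 0.2 nM JAK2 / 0.3 nM JAK3 / 2 nM TYK2; 50 μM peptide; 100 min. Unused ATP depleted, ADP→ATP, luciferase luminescence. 11-pt 3-fold series from 10 or 1 μM; normalized, 4PL fit → IC50.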

[2] = molecular target: T2, human TYK2 kinase domain (JH1) (Homo sapiens, UniProt P29597); test: JH1 biochemical assay for TYK2 (ADP-Glo kinase assay, recombinant JH1 catalytic domain, JAK3-974 peptide, 10 μM ATP)
T2 construct: recombinantly generated catalytic kinase (also known as JH1) domain of human JAK1, JAK2, JAK3 and TYK2
T2 sequence (P29597 897-1176 limits assumed): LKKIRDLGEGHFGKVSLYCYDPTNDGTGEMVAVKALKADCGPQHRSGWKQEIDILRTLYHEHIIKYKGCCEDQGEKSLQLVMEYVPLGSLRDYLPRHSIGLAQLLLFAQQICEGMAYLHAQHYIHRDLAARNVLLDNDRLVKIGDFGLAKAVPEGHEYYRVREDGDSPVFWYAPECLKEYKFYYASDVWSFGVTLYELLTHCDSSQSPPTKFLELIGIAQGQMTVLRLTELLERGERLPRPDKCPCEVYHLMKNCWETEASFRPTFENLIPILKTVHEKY
Procedure, shortened: as §1

[3] = molecular target: T3, human JAK3 kinase domain (JH1) (Homo sapiens, UniProt P52333); test: JH1 biochemical assay for JAK3 (ADP-Glo kinase assay, recombinant JH1 catalytic domain, JAK3-974 peptide, 4 μM ATP)
T3 construct: recombinantly generated catalytic kinase (also known as JH1) domain of human JAK1, JAK2, JAK3 and TYK2
Procedure, shortened: as §1

[4] = molecular target: Tyk2 kinase activity on STAT4 in NK92 cells (Homo sapiens, UniProt P29597); test: pSTAT4 cell assay (MSD; NK92 cells, 30 ng/mL IL2 stimulation); format: cell-based; conditions: 30 ng/mL IL2, 15 minutes
Procedure: The inhibitory potency of compounds of the disclosure against the Tyk2 kinase activity on STAT4 was evaluated using an MSD-platform plate-based assay format. NK92 cells natively expressing STAT4 and Tyk2 were serum-starved to reduce background phosphorylation levels, then cells were treated compounds for 1 hr with a 10-point four-fold dilution series starting at 10 μM. Cells were then stimulated with 30 ng/mL IL2 for 15 minutes. Cells were lysed and […] levels were quantitated using an MSD plate-based assay with anti-STAT4 antibodies. The data were normalized and the percent activity versus log concentration of compound were fitted with a 4-parameter logistic model to generate to generate IC50 curves.

[5] = molecular target: JAK1 kinase activity on STAT3 in TF1 cells (Homo sapiens, UniProt P23458); test: pSTAT3 cell assay (MSD; TF1 cells, 30 ng/mL IL-6 stimulation); format: cell-based; conditions: 30 ng/mL IL-6, 15 minutes
Procedure: The inhibitory potency of compounds of the disclosure against the JAK1 kinase activity on STAT3 was evaluated using an MSD-platform plate-based assay format. TF1 cells natively expressing STAT3 and JAK1 were serum-starved to reduce background phosphorylation levels, then cells were treated with compounds of the disclosure for 1 hour with a 10-point four-fold dilution series starting at 10 μM. Cells were then stimulated with 30 ng/mL interleukin 6 (IL-6) for 15 minutes. Cells were lysed and pSTAT3 levels were quantitated using an MSD plate-based assay with anti-STAT3 antibodies. The data were normalized and the percent activity versus log concentration of compound was fitted with a 4-parameter logistic model to generate IC50 curves.

[6] = molecular target: JAK2 kinase activity on STAT5 in TF1 cells (Homo sapiens, UniProt O60674); test: pSTAT5 cell assay (MSD; TF1 cells, 30 ng/mL IL-3 stimulation); format: cell-based; conditions: 30 ng/mL IL-3, 15 minutes
Procedure: The inhibitory potency of compounds of the disclosure against the JAK2 kinase activity on STAT5 was evaluated using an MSD-platform plate-based assay format. TF1 cells natively expressing STAT5 and JAK2 were serum-starved to reduce background phosphorylation levels, then cells were treated with compounds of disclosure for 1 hour with a 10-point four-fold dilution series starting at 10 μM. Cells were then stimulated with 30 ng/mL IL-3 for 15 minutes. Cells were then lysed and pSTAT5 levels were quantitated using an MSD plate-based assay with anti-STAT5 antibodies. The data were normalized and the percent activity versus log concentration of compound was fitted with a 4-parameter logistic model to generate a curve and an IC50 value.

[7] = molecular target: T4, human JAK2 kinase domain (JH1) (Homo sapiens, UniProt O60674); test: JH1 biochemical assay for JAK2 (ADP-Glo kinase assay, recombinant JH1 catalytic domain, JAK3-974 peptide, 15 μM ATP)
T4 construct: recombinantly generated catalytic kinase (also known as JH1) domain of human JAK1, JAK2, JAK3 and TYK2
Procedure, shortened: as §1

T1 sequence (P23458 875-1153 limits assumed): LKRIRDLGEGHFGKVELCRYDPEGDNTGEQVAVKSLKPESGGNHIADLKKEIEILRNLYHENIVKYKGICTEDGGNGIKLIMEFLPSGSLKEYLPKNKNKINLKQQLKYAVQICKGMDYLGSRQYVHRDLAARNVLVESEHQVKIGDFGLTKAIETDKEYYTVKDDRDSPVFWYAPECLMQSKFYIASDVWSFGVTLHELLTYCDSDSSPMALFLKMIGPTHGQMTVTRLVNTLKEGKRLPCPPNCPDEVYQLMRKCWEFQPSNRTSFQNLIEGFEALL
JAK2 kinase activity on STAT5 in TF1 cells, sequence (O60674 whole entry): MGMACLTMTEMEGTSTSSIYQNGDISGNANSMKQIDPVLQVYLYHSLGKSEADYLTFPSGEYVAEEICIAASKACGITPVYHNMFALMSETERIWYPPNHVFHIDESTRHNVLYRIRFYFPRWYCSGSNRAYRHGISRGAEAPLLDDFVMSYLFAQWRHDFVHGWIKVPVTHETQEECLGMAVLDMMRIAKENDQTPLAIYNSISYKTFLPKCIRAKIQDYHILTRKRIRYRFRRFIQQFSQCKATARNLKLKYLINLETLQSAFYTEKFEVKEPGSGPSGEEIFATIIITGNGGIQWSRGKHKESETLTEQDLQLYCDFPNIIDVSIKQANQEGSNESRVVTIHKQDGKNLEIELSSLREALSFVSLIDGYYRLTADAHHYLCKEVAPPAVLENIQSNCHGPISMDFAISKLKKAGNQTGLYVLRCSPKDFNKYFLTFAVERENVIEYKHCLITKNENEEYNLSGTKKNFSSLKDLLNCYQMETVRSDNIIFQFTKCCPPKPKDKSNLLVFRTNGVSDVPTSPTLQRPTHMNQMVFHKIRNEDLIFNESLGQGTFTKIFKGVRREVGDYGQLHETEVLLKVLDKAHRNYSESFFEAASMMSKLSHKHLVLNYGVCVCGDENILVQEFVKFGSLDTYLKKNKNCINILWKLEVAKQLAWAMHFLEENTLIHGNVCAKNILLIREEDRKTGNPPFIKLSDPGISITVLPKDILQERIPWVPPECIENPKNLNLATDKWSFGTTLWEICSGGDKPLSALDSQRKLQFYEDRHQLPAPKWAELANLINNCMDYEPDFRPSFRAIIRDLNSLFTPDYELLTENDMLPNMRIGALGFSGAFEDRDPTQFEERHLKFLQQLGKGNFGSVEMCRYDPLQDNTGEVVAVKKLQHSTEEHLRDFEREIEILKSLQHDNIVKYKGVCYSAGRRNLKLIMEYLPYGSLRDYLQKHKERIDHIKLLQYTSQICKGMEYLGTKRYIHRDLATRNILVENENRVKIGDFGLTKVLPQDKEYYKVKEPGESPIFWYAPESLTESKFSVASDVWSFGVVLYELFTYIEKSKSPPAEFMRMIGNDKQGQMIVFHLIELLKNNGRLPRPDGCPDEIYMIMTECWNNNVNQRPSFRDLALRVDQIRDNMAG
T4 sequence (O60674 849-1124 limits assumed): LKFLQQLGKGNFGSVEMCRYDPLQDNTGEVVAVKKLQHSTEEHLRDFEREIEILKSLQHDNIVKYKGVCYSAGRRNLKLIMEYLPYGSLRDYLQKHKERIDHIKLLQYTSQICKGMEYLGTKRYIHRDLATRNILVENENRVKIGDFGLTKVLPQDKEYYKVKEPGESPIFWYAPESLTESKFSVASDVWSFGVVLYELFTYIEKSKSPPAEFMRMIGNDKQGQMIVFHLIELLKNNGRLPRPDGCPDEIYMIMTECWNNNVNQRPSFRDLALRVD
T3 sequence (P52333 822-1111 limits assumed): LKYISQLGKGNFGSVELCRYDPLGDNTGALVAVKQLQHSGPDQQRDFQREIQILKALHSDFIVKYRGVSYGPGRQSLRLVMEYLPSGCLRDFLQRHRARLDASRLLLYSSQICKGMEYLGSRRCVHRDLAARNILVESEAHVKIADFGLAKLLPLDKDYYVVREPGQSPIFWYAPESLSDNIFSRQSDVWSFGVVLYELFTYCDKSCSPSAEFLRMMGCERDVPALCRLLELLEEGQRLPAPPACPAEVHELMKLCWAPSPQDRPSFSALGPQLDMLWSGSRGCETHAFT
JAK1 kinase activity on STAT3 in TF1 cells, sequence (P23458 whole entry): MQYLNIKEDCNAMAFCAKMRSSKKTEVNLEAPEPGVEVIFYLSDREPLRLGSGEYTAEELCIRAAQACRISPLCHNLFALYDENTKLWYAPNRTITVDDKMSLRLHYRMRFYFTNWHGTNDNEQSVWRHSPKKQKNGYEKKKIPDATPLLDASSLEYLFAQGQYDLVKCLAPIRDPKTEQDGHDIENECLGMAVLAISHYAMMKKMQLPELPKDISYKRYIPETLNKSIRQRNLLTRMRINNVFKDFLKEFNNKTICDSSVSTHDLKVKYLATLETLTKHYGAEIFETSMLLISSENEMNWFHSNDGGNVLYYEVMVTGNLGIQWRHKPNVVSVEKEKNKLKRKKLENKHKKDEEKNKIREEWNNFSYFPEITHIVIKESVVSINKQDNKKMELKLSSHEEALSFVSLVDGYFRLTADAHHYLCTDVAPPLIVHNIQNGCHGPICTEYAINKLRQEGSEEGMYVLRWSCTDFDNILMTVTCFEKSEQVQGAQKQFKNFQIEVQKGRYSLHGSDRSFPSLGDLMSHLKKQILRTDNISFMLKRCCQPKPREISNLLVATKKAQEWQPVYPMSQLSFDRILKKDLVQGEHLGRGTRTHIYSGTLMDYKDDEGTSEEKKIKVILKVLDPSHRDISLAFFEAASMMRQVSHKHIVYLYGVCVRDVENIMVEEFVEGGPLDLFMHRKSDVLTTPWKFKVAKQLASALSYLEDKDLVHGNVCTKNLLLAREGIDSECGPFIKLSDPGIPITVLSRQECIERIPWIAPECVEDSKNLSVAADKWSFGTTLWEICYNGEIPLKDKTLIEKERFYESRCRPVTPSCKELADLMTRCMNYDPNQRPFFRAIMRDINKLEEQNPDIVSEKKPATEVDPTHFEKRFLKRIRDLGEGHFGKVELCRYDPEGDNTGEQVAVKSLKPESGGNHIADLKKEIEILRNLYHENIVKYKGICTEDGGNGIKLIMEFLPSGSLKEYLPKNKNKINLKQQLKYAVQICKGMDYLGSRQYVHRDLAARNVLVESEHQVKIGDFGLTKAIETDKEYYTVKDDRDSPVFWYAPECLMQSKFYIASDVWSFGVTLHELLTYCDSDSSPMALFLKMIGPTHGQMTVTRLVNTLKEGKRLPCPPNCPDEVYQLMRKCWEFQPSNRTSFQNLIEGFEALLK
Tyk2 kinase activity on STAT4 in NK92 cells, sequence (P29597 whole entry): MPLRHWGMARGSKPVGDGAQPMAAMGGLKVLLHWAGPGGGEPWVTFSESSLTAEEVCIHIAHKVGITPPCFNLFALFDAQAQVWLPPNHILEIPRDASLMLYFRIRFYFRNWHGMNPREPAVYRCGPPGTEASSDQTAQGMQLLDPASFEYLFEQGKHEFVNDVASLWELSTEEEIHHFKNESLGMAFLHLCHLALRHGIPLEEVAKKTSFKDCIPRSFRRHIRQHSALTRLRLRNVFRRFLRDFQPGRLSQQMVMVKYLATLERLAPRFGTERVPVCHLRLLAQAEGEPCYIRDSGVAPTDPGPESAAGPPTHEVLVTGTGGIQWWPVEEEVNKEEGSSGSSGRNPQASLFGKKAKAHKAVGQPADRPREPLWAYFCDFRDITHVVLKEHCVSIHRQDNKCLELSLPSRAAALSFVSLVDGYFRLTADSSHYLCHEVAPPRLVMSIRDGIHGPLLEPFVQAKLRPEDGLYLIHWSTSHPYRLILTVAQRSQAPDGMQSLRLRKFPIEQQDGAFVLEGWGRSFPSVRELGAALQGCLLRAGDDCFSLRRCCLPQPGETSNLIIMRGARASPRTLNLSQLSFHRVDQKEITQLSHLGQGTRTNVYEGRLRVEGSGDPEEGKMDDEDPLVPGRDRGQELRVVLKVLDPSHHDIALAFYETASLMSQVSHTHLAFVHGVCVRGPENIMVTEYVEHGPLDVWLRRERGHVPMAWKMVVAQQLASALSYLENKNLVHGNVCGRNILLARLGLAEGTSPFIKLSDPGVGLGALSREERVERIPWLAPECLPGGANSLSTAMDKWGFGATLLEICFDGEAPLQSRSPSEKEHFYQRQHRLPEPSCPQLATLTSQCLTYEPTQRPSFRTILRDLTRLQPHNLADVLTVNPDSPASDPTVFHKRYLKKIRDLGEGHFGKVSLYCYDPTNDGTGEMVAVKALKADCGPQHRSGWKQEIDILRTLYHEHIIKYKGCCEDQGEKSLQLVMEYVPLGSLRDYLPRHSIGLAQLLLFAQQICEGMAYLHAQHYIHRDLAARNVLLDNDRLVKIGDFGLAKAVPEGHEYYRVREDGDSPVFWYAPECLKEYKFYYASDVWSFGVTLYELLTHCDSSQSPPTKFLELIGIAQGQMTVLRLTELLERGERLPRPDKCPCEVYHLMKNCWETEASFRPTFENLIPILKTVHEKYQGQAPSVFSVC

| SMILES | IC50 ([1]; JAK1 JH1, ADP-Glo) [nM] | IC50 ([2]; TYK2 JH1, ADP-Glo) [nM] | IC50 ([3]; JAK3 JH1, ADP-Glo) [nM] | IC50 [4] [nM] | IC50 [5] [nM] | IC50 [6] [nM] | IC50 ([7]; JAK2 JH1, ADP-Glo) [nM] | IC50 ([1]; JH1 kinase domain, ADP-Glo) [nM] | IC50 ([2]; JH1 kinase domain, ADP-Glo) [nM] | IC50 ([3]; JH1 kinase domain, ADP-Glo) [nM] | IC50 ([7]; JH1 kinase domain, ADP-Glo) [nM] |
| --- | --- | --- | --- | --- | --- | --- | --- | --- | --- | --- | --- |
| C[C@@H]1CN(c2ccnn3cc(-c4cnn(C5CN(C)C5)c4)cc23)C(=O)[C@]1(C#N)C1CC1 [Example 316, (3R,4S)-3-cyclopropyl-4-methyl-1-(6-(1-(1-methylazetidin-3-yl)-1H-pyrazol-4-yl)pyrrolo[1,2-b]pyridazin-4-yl)-2-oxopyrrolidine-3-carbonitrile] | 100 to 1000 | < 5 | 100 to 1000 | 50 to 100 | 5000 to 10000 | 5000 to 10000 | 100 to 1000 | – | – | – | – |
| C[C@@H]1CN(c2ccnn3cc(-c4ccnc(F)c4)cc23)C(=O)[C@]1(C#N)C1CC1 [Example 73, (3R,4S)-3-cyclopropyl-1-(6-(2-fluoropyridin-4-yl)pyrrolo[1,2-b]pyridazin-4-yl)-4-methyl-2-oxopyrrolidine-3-carbonitrile] | – | – | – | > 100 | 1000 to 5000 | > 10000 | – | 100 to 1000 | 5 to 20 | 100 to 1000 | 100 to 1000 |
| CC(=O)Nc1cccc(-c2cc3c(N4C[C@@H](C)[C@@](C#N)(C5CC5)C4=O)ccnn3c2)n1 [Example 131, N-(6-(4-((3R,4S)-3-cyano-3-cyclopropyl-4-methyl-2-oxopyrrolidin-1-yl)pyrrolo[1,2-b]pyridazin-6-yl)pyridin-2-yl)acetamide trifluoroacetate] | – | – | – | 50 to 100 | 100 to 1000 | 1000 to 5000 | – | < 100 | < 5 | 100 to 1000 | 100 to 1000 |
| C[C@@H]1CN(c2ccnn3cc(-c4cnn([C@@H]5CC5(F)F)c4)cc23)C(=O)[C@]1(C#N)C1CC1 (single isomer, unassigned) [Example 155] | – | – | – | 50 to 100 | 1000 to 5000 | 1000 to 5000 | – | < 100 | < 5 | 100 to 1000 | 100 to 1000 |
| COc1cccc(-c2cn3nccc3c(N3C[C@@H](C)[C@@](C#N)(C4CC4)C3=O)n2)n1 [Example 193, (3R,4S)-3-cyclopropyl-1-(6-(6-methoxypyridin-2-yl)pyrazolo[1,5-a]pyrazin-4-yl)-4-methyl-2-oxopyrrolidine-3-carbonitrile] | – | – | – | > 100 | > 10000 | > 10000 | – | 100 to 1000 | 5 to 20 | > 10000 | > 10000 |
| C[C@@H]1CN(c2ccnn3cc(-c4ccc5c(cnn5C)c4)cc23)C(=O)[C@]1(C#N)C1CC1 [Example 55, (3R,4S)-3-cyclopropyl-4-methyl-1-(6-(1-methyl-1H-indazol-5-yl)pyrrolo[1,2-b]pyridazin-4-yl)-2-oxopyrrolidine-3-carbonitrile] | – | – | – | 5 to 20 | 100 to 1000 | 1000 to 5000 | – | < 100 | < 5 | 100 to 1000 | 100 to 1000 |
| Cc1cnc(-c2cc3c(N4C[C@@H](C)[C@@](C#N)(C5CC5)C4=O)ccnn3c2)s1 [Example 118, (3R,4S)-3-cyclopropyl-4-methyl-1-(6-(5-methylthiazol-2-yl)pyrrolo[1,2-b]pyridazin-4-yl)-2-oxopyrrolidine-3-carbonitrile trifluoroacetate] | – | – | – | > 100 | 5000 to 10000 | > 10000 | – | 100 to 1000 | 5 to 20 | 100 to 1000 | 100 to 1000 |
| Cc1cnn(-c2cc3c(N4C[C@@H](C)[C@@](C#N)(C5CC5)C4=O)ccnn3c2)c1 [Example 333, (3R,4S)-3-cyclopropyl-4-methyl-1-(6-(4-methyl-1H-pyrazol-1-yl)pyrrolo[1,2-b]pyridazin-4-yl)-2-oxopyrrolidine-3-carbonitrile] | 100 to 1000 | 5 to 20 | 100 to 1000 | > 100 | > 10000 | > 10000 | 100 to 1000 | – | – | – | – |

Other lines, results leading:

| IC50 ([1]; JAK1 JH1, ADP-Glo) [nM] | IC50 ([2]; TYK2 JH1, ADP-Glo) [nM] | IC50 ([3]; JAK3 JH1, ADP-Glo) [nM] | IC50 [4] [nM] | IC50 [5] [nM] | IC50 [6] [nM] | IC50 ([7]; JAK2 JH1, ADP-Glo) [nM] | IC50 ([1]; JH1 kinase domain, ADP-Glo) [nM] | IC50 ([2]; JH1 kinase domain, ADP-Glo) [nM] | IC50 ([3]; JH1 kinase domain, ADP-Glo) [nM] | IC50 ([7]; JH1 kinase domain, ADP-Glo) [nM] | SMILES |
| --- | --- | --- | --- | --- | --- | --- | --- | --- | --- | --- | --- |
| 100 to 1000 | 5 to 20 | 100 to 1000 | > 100 | 1000 to 5000 | > 10000 | 1000 to 5000 | – | – | – | – | Cc1c(-c2cn3ncc(F)c3c(N3C[C@@H](C)[C@@](C#N)(C4CC4)C3=O)n2)cnn1C [Example 221, (3R,4S)-3-cyclopropyl-1-(6-(1,5-dimethyl-1H-pyrazol-4-yl)-3-fluoropyrazolo[1,5-a]pyrazin-4-yl)-4-methyl-2-oxopyrrolidine-3-carbonitrile] |
| 100 to 1000 | 5 to 20 | 100 to 1000 | > 100 | 5000 to 10000 | > 10000 | 100 to 1000 | – | – | – | – | COc1cncc(-c2cn3nccc3c(N3C[C@@H](C)[C@@](C#N)(C4CC4)C3=O)n2)c1 [Example 244, (3R,4S)-3-cyclopropyl-1-(6-(5-methoxypyridin-3-yl)pyrazolo[1,5-a]pyrazin-4-yl)-4-methyl-2-oxopyrrolidine-3-carbonitrile trifluoroacetate] |
| – | – | – | > 100 | 5000 to 10000 | > 10000 | – | 100 to 1000 | 20 to 50 | 100 to 1000 | 100 to 1000 | C[C@@H]1CN(c2ccnn3cc(-c4cnn(C)c4)nc23)C(=O)[C@]1(C#N)C1CC1 [Example 182, (3R,4S)-3-cyclopropyl-4-methyl-1-(2-(1-methyl-1H-pyrazol-4-yl)imidazo[1,2-b]pyridazin-8-yl)-2-oxopyrrolidine-3-carbonitrile] |
| < 100 | < 5 | < 100 | 50 to 100 | 100 to 1000 | 100 to 1000 | < 100 | – | – | – | – | C[C@@H]1CN(c2nc(-c3cnn([C@H]4C[C@](C)(C#N)C4)c3)cn3ncc(F)c23)C(=O)[C@]1(C#N)C1CC1 [Example 308, (3R,4S)-1-(6-(1-((1r,3R)-3-cyano-3-methylcyclobutyl)-1H-pyrazol-4-yl)-3-fluoropyrazolo[1,5-a]pyrazin-4-yl)-3-cyclopropyl-4-methyl-2-oxopyrrolidine-3-carbonitrile] |
| < 100 | < 5 | < 100 | 50 to 100 | 100 to 1000 | 100 to 1000 | < 100 | – | – | – | – | C[C@@H]1CN(c2nc(-c3cnn(C4CN(C)C4)c3)cc3ncsc23)C(=O)[C@]1(C#N)C1CC1 [Example 358, (3R,4S)-3-cyclopropyl-4-methyl-1-(6-(1-(1-methylazetidin-3-yl)-1H-pyrazol-4-yl)thiazolo[5,4-c]pyridin-4-yl)-2-oxopyrrolidine-3-carbonitrile] |
| < 100 | < 5 | < 100 | 20 to 50 | < 100 | < 100 | < 100 | – | – | – | – | C[C@@H]1CN(c2nc(-c3cnn(CC(F)F)c3)cc3ncsc23)C(=O)[C@]1(C#N)C1CC1 [Example 354, (3R,4S)-3-cyclopropyl-1-(6-(1-(2,2-difluoroethyl)-1H-pyrazol-4-yl)thiazolo[5,4-c]pyridin-4-yl)-4-methyl-2-oxopyrrolidine-3-carbonitrile] |
| 100 to 1000 | 5 to 20 | 100 to 1000 | 50 to 100 | > 10000 | > 10000 | 1000 to 5000 | – | – | – | – | C[C@@H]1CN(c2nc(-c3cnc(N(C)C)nc3)cn3nccc23)C(=O)[C@]1(C#N)C1CC1 [Example 264, (3R,4S)-3-cyclopropyl-1-(6-(2-(dimethylamino)pyrimidin-5-yl)pyrazolo[1,5-a]pyrazin-4-yl)-4-methyl-2-oxopyrrolidine-3-carbonitrile trifluoroacetate] |
